Measured values: patent publication US5990083A, “Multicatalytic protease inhibitors” (Cephalon, Inc., priority 1997, dated 1999)
Several values for one entry are separate records, joined by “and”; a condition that tells them apart may be missing. Identical values can stand only once.

Experiments:
control soleus muscle = experiment: Effect of MCP inhibitors on control muscle protein content; type: in vivo, rat; conditions: Table 1; treated soleus versus vehicle-injected contralateral muscle
Excerpt: Juvenile female Sprague-Dawley rates (80-90 g) were tail-cast, hind limb suspended as in Jetspers, S. R. and Tischler, M. E., (1984) J. Appl. Physiol. 57: 1472-1479. The animal's hind limbs were elevated above the floor of the cage with each animal housed individually. Animals had free access to food and water, and were weighed at the time of suspension and at time of termination. During the suspension period the animals were checked daily to ensure that their toes were not touching the floor of the cage, and that there was no swelling of the tail due to the cast.
Animals were treated as in group B, except that 1 mM MCP inhibitor, contained in dimethysulfoxide (DMSO), was injected into the soleus of one leg and DMSO only into the contralateral soleus. Thus each experiment consisted of two control groups and the testing of MCP inhibitors of the invention. The completion of five such experiments with different pairs of inhibitors provided for an "n" value of 10 for testing each MCP inhibitor and with each tested in two different shipments of animals.
After the animal was sacrificed, the soleus was excised, trimmed of fat and connective tissue, and carefully weighed. The muscle was then homogenized in 10% trichloroacetic acid (TCA) and the precipitated protein pelleted by centrifugation. The pellet was then washed once with 10% TCA and once with ethanol:ether (1:1). The final pellet was solubilized in 4 ml of 1N sodium hydroxide. The sample was then analyzed for protein content by the biuret procedure, using albumin as a standard.
The effect of MCP inhibitors on total muscle protein content was examined primarily by paired comparison with the untreated contralateral muscle. The ratio of contents was calculated and then analyzed statistically by analysis of variance ("ANOVA"). The left leg was always the treated leg so that the protein content ratios could be compared to the non-treated control animals as well. In this way, a significant difference can be shown by comparing the protein content of the two legs, as well as the relative effectiveness of the tested MCP inhibitors. […]

human MCP = target: T1, human MCP (Homo sapiens, UniProt P28074+Q99436); experiment: Determination of IC50 values for MCP inhibitors (chymotrypsin-like or trypsin-like activity of MCP); type: biochemical; conditions: Table 5, first series; enzyme incubated with inhibitor 15 minutes at 37° C. prior to substrate
T1 construct: Samples of human liver and brain obtained post-mortem were used for isolation and partial purification of MCP; from tissue; host or cells: human liver and brain, post-mortem
Procedure: Samples of human liver and brain obtained post-mortem were used for isolation and partial purification of MCP by ion-exchange chromatography, ammonium sulfate precipitation, and gel filtration (e.g., Driscoll and Goldberg, Proc. Natl. Acad. Sci. 86, 787-791 (1989); Yamamoto et al., Biochim, Biophys. Acta 882, 297-304 (1986). For either starting material, tissue was homogenized in 10 volumes of 20 mM Tris-HCl (pH 7.5) containing 20% glycerol. Following centrifugation at 40,000×g for 30 minutes, proteolytic activity of the chymotrypsin-like component of MCP could be detected in the supernatant (see below). The supernatant was fractionated on a DEAE-Sepharose Fast Flow column equilibrated in homogenization buffer. For each liter of supernatant, 250 ml of resin was used. Following sample loading, the column was washed with ^~ 10 volumes homogenization buffer, and proteins were eluted with a linear NaCl gradient of from 0 to 400 mM (21 for 250 ml resin). Fractions were assayed for MCP activity, and the active fractions were pooled and subjected to precipitation with (NH4)2 SO4 at 80% saturation. Precipitated proteins were collected by centrifugation, resuspended in homogenization buffer, and loaded on a Sephacryl S300HR column (500 ml resin volume) that had been standardized using bovine serum albumin (68 kDa). A single peak of MCP activity was eluted with a molecular weight of ^~ 650 kDa. This preparation was free of other measurable proteolytic activities and maintained its MCP activity upon storage at 4° C. for >6 months. This preparation was used for most of the experiments. Further fractionation of the preparation on an hydroxyapatite-Ultrogel column (Yamamoto et al., supra) yielded a more highly purified enzyme, which according to denaturing SDS-polyacrylamide gel electrophoresis was comprised of the expected >10 subunits ranging in Mr from 20 to 35 kDa.
The procedure for MPC isolation described above generated an enzyme complex whose proteolytic activities were latent, but which could be activated by addition of low concentrations (0.02-0.05%) of SDS (Yamamoto et al., supra). The chymotrypsin-like activity was assayed according to the following procedure: in 96 well microtiter plates, human MCP was diluted 4 to 10-fold in homogenization buffer containing 0.04% SDS. A calorimetric substrate MeOSuc-EVKM-para-nitroanilide (methoxysuccinyl-Glu-Val-Lys-Met-pNa), purchased from Bachem Bioscience Inc., King of Prussia, Pennsylvania was added to a final concentration of 100 μM from a stock solution of 10 mM in dimethylsulfoxide. Reaction volumes were 200 μl per well. After incubation for various periods of time at 37° C., the concentration of free pNa was determined on a Biotech EL-340 microplate reader, reading absorption at 490 nm. Protease activity was determined under conditions in which substrate hydrolysis increased linearly with time and the change in absorption was proportional to the concentration of free pNa. Alternatively, a fluorogenic substrate was used, methoxysuccinyl-Phe-Leu-Phe-amidomethylcoumarin (Enzyme Systems Products, Dublin, Calif.), and the change in fluorescence monitored at an excitation of 390 nm, and an emission at 460 nm.
The trypsin-like activity of human MCP was assayed as described above with the following modifications. Reactions were carried out in Tris-glycerol buffer (pH 9.5) supplemented with 1 mM 2-mercaptoethanol, and the substrate was a fluorogenic substrate, Benzyloxycarbonyl--Phe--Arg--AMC (100 μM).
After incubation for various periods of time at 37° C., the concentration of free AMC was determined on a Fluoroskan II spectrofluorimeter with an excitation filter of 390 nm and an emission filter of 460 nm. Protease activity was determined under conditions in which substrate hydrolysis increased linearly with time and the change in fluorescence was proportional to the concentration of free AMC. […]

Structure (SMILES)	Protein, Treatment (control muscle) (control soleus muscle) [mg/muscle]	IC50 (human MCP)
CC(C)C[C@@H](C=O)NC(=O)[C@H](CCCNC(=N)N[N+](=O)[O-])NC(=O)C(CCCCCCCCC#N)C1CCCC1 (stereo partly drawn) [Compound 14, 10-cyano-2-cyclopentyldecanoyl-N^g-nitro-L-arginyl-L-leucinal]	6.1	7 nM and 6 nM
COC(=O)CCCCCCCC(C(=O)N[C@@H](CCCNC(=N)NS(=O)(=O)c1c(C)c(C)c2c(c1C)CCC(C)(C)O2)C(=O)N[C@H](C=O)CC(C)C)C1CCCC1 (stereo partly drawn) [Compound 20, 9-Methoxycarbonyl-2-cyclopentyl-nonanoyl-N^g-(2,2,5,7,8-pentamethylchroman-6-sulfonyl)-L-arginyl-L-leucinal]	5.9	10 nM
